The values below come from patent EP4644383A1 (Jiangsu Yahong Meditech Co., Ltd., priority 2022, dated 2024).

Assay [1] deals with T1, FGFR1 (Homo sapiens, UniProt P11362).
T1 construct: cytoplasmic domain [398-822 (terminal) amino acids]; purchased Carna 08-133
Description: FGFR1 kinase activity inhibition assay (LanthaScreen TR-FRET). Format: biochemical. As for the experimental part:
PV3552) and 10 mM EDTA were added to quench the kinase reaction, and incubated at 22°C for 60 minutes. • ⑤ The reaction was measured using a PerkinElmer EnVision multimode plate reader through TR-FRET dual wavelength detection. • 1. The RFU values were copied from the Envision program. • 2. The ratio of RFU 520nm/RFU 495nm was calculated. • 3. The value of the ratio was converted to a percentage inhibition value. % Inhibition = (max-data)/(max-min) × 100 [formula] "Min" represents the ratio of the control without enzyme, "max" represents the ratio of the DMSO control, and "data" represents the ratio of the compounds in wells with different concentrations. […] "Top" refers to the maximum response, "Bottom" refers to the minimum response, and "HillSlope" refers to the slope of the curve.
For orientation: Time-resolved FRET reads energy transfer from a long-lived donor to a nearby acceptor.

Assay [2] has as its target T2, FGFR3 (Homo sapiens, UniProt P22607).
T2 construct: FGFR3's cytoplasmic domain [436-806 (terminal) amino acids]; purchased Carna 08-135
Description: FGFR3 kinase activity inhibition assay (LanthaScreen TR-FRET). Format: biochemical. The conditions noted are these: for Selectivity (X) FGFR1/FGFR3: ratio of IC50 FGFR1/FGFR3, selectivity towards FGFR3. In outline:
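Read-out is TR-FRET, with the 520 nm/495 nm emission ratio normalised to DMSO (max) and enzyme-free (min) controls. Enzyme was the FGFR3 cytoplasmic domain, residues 436-806. EDTA (10 mM) stopped the reaction, followed by 60 min at 22 °C before reading.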

The mark [3] stands for this setting: FGFR1 kinase, TR-FRET, read-out: IC50 (nM) FGFR1.
The mark [4] stands for this setting: FGFR3 kinase, TR-FRET, read-out: IC50 (nM) FGFR3.

Structures are written as SMILES. Like-named read-outs stand apart in the source and are kept apart here.

T2 sequence (P22607 436-806): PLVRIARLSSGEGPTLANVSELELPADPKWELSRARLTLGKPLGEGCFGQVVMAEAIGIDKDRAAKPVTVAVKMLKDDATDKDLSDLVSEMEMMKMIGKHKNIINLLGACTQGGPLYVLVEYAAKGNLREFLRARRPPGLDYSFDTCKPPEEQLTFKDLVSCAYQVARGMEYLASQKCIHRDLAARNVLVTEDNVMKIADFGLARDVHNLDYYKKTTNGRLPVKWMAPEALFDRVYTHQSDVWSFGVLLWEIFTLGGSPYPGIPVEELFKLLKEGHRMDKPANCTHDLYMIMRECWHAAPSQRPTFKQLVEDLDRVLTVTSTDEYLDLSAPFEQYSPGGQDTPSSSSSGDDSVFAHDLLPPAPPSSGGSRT
T1 sequence (P11362 398-822): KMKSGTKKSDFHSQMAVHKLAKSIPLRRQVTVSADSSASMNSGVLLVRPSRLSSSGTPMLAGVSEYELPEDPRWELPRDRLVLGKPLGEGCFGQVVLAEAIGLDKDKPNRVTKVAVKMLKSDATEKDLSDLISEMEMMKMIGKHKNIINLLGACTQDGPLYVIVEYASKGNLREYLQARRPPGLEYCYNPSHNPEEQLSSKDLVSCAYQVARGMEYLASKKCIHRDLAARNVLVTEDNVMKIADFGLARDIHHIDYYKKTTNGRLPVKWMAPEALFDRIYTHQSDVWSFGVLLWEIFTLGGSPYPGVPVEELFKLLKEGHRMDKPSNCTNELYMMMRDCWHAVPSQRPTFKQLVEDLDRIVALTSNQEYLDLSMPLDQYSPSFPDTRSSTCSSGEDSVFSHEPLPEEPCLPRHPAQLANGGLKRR

The IC50 is the concentration needed to halve the response being measured. As to `CC(=O)N1CCN(CCn2cc(-c3n[nH]c4ccc(O[C@H](C)c5c(Cl)cncc5Cl)nc34)cn2)CC1` [Example 57, (R)-1-(4-(2-(4-(5-(1-(3,5-dichloropyridin-4-yl)ethoxy)-1H-pyrazolo[4,3-b]pyridin-3-yl)-1H-pyrazol-1-yl)ethyl)piperazin-1-yl)ethan-1-one], the IC50 in assay [1] (setting [3]) is 1 to 10 nM; in assay [2] (setting [4]), under 1 nM. Moreover, in assay [2], the “Selectivity (X) FGFR1/FGFR3” value is “A (A represents 1 ≤ multiple X<20)”.

With `C[C@@H](Oc1ccc2[nH]nc(-c3cnn(CC(=O)N4CCOCC4)c3)c2n1)c1c(Cl)cncc1Cl` [Example 63, (R)-2-(4-(5-(1-(3,5-dichloropyridin-4-yl)ethoxy)-1H-pyrazolo[4,3-b]pyridin-3-yl)-1H-pyrazol-1-yl)-1-morpholinoethan-1-one], the IC50 lay in the range of 10 to 100 nM in assay [1] (setting [3]) and 1 to 10 nM in assay [2] (setting [4]). In assay [2], the “Selectivity (X) FGFR1/FGFR3” value was “A (A represents 1 ≤ multiple X<20)”.

As to `C[C@@H](Oc1ccc2[nH]nc(-c3cnn(CCN4CCCC4=O)c3)c2n1)c1c(Cl)cncc1Cl` [Example 64, (R)-1-(2-(4-(5-(1-(3,5-dichloropyridin-4-yl)ethoxy)-1H-pyrazolo[4,3-b]pyridin-3-yl)-1H-pyrazol-1-yl)ethyl)pyrrolidin-2-one], the IC50 is 10 to 100 nM in assay [1] (setting [3]) and 1 to 10 nM in assay [2] (setting [4]). In addition, in assay [2], the “Selectivity (X) FGFR1/FGFR3” value is “A (A represents 1 ≤ multiple X<20)”.

As for `CNCCNS(=O)(=O)c1ccc2[nH]nc(-c3cnn(C)c3)c2c1` [Example 76, 3-(1-methyl-1H-pyrazol-4-yl)-N-(2-(methylamino)ethyl)-1H-indazole-5-sulfonamide], the IC50 in assay [1] (setting [3]) and in assay [2] (setting [4]) was over 100 nM in each case. In assay [2], the “Selectivity (X) FGFR1/FGFR3” value is on record as “A (A represents 1 ≤ multiple X<20)”.

As for `CC(Oc1ccc2[nH]nc(-c3cnn(C)c3)c2c1)c1ccnc2ccccc12` (stereo not drawn) [Example 87, 4-(1-((3-(1-methyl-1H-pyrazol-4-yl)-1H-indazol-5-yl)oxy)ethyl)quinoline], the IC50 in assay [1] (setting [3]) was over 100 nM; in assay [2] (setting [4]), 10 to 100 nM. For the same compound, the “Selectivity (X) FGFR1/FGFR3” value in assay [2] was “B (B represents 20 ≤ multiple X<50)”.

In the case of `Cc1ccc2ncccc2c1C(C)Oc1ncc2[nH]nc(-c3cnn(C)c3)c2n1` (stereo not drawn) [Example 110, 6-methyl-5-(1-((3-(1-methyl-1H-pyrazol-4-yl)-1H-pyrazino [4,3-d]pyrimidin-5-yl)oxy)ethyl)quinoline], the IC50 in assay [1] fell in the range of 10 to 100 nM; in assay [2] it was 1 to 10 nM. The “Selectivity (X) FGFR1/FGFR3” value in assay [2] is on record as “A (A represents 1 ≤ multiple X<20)”.

In the case of `CCc1ccc2ncccc2c1C(C)Oc1ccc2[nH]nc(-c3cnn(C)c3)c2c1` (stereo not drawn) [Example 111, 6-ethyl-5-(1-((3-(1-methyl-1H-pyrazol-4-yl)-1H-indazol-5-yl)oxy)ethyl)qu inoline], the IC50 in assay [1] (setting [3]) was in the range of 10 to 100 nM; in assay [2] (setting [4]), 1 to 10 nM. Further, the “Selectivity (X) FGFR1/FGFR3” value in assay [2] is “A (A represents 1 ≤ multiple X<20)”.

For `Cc1ccc2nccnc2c1C(C)Oc1ccc2[nH]nc(-c3cnn(C)c3)c2c1` (stereo not drawn) [Example 112], the IC50 in assay [1] (setting [3]) is 10 to 100 nM; in assay [2] (setting [4]) it was under 1 nM. In addition, the “Selectivity (X) FGFR1/FGFR3” value in assay [2] is recorded as “A (A represents 1 ≤ multiple X<20)”.

On to `CCC(Oc1ccc2[nH]nc(-c3cnn(C)c3)c2c1)c1c(C)ccc2ncccc12` (stereo not drawn) [Example 113, 6-methyl-5-(1-((3-(1-methyl-1H-pyrazol-4-yl)-1H-indazol-5-yl)oxy)propyl)quinoline], for which the 50% inhibitory concentration (IC50) in assay [1] (setting [3]) lay within 10 to 100 nM; in assay [2] (setting [4]), 1 to 10 nM. The “Selectivity (X) FGFR1/FGFR3” value in assay [2] is on record as “A (A represents 1 ≤ multiple X<20)”.

For the compound `CC(Oc1ccc2[nH]nc(-c3cnn(C)c3)c2c1)c1nccc2ncccc12` (stereo not drawn) [Example 120, 5-(1-((3-(1-methyl-1H-pyrazol-4-yl)-1H-indazol-5-yl)oxy)ethyl)-1,6-naphthyridine], the IC50 in assay [1] (setting [3]) is over 100 nM; in assay [2] (setting [4]), 1 to 10 nM. Moreover, the “Selectivity (X) FGFR1/FGFR3” value in assay [2] is recorded as “B (B represents 20 ≤ multiple X<50)”.

For `Cc1cnc2cccc(C(C)Oc3ccc4[nH]nc(-c5cnn(C)c5)c4c3)c2c1` (stereo not drawn) [Example 128, 3-methyl-5-(1-((3-(1-methyl-1H-pyrazol-4-yl)-1H-indazol-5-yl)oxy)ethyl)qu inoline], the IC50 is over 100 nM in assay [1] (setting [3]) and 1 to 10 nM in assay [2] (setting [4]). Also, the “Selectivity (X) FGFR1/FGFR3” value in assay [2] is recorded as “B (B represents 20 ≤ multiple X<50)”.

For the compound `CC(C)c1ccc2nccnc2c1C(C)Oc1ccc2[nH]nc(-c3cnn(C)c3)c2c1` (stereo not drawn) [Example 129, 6-isopropyl-5-(1-((3-(1-methyl-1H-pyrazol-4-yl)-1H-indazol-5-yl)oxy)ethyl)quino xaline], the 50% inhibitory concentration (IC50) in assay [1] (setting [3]) and in assay [2] (setting [4]) was 1 to 10 nM in each case. The “Selectivity (X) FGFR1/FGFR3” value in assay [2] is recorded as “A (A represents 1 ≤ multiple X<20)”.

Regarding `CC(Oc1ccc2[nH]nc(-c3cnn(C)c3)c2c1)c1cc(C2CC2)cc2nccnc12` (stereo not drawn) [Example 139, 7-cyclopropyl-5-(1-((3-(1-methyl-1H-pyrazol-4-yl)-1H-indazol-5-yl)oxy)ethyl)qu inoxaline], the IC50 in assay [1] (setting [3]) was over 100 nM; in assay [2] (setting [4]), 1 to 10 nM. For the same compound, the “Selectivity (X) FGFR1/FGFR3” value in assay [2] is reported as “C (C represents 50 ≤ multiple X<100)”.

Turning to `CC(Oc1ccc2[nH]nc(-c3cnn(C)c3)c2c1)c1cc(C#N)cc2nccnc12` (stereo not drawn) [Example 141, 8-(1-((3-(1-methyl-1H-pyrazol-4-yl)-1H-indazol-5-yl)oxy)ethyl)qu inoxaline-6-carbonitrile], the IC50 in assay [1] (setting [3]) is 10 to 100 nM; in assay [2] (setting [4]), under 1 nM. Also, the “Selectivity (X) FGFR1/FGFR3” value in assay [2] is on record as “B (B represents 20 ≤ multiple X<50)”.

Take `CC(Oc1ccc2[nH]nc(-c3cnn(C)c3)c2c1)c1cc(Br)cc2nccnc12` (stereo not drawn) [Example 143, 7-bromo-5-(1-((3-(1-methyl-1H-pyrazol-4-yl)-1H-indazol-5-yl)oxy)ethyl)quinoxaline]: the IC50 was in the range of 10 to 100 nM in assay [1] (setting [3]) and 1 to 10 nM in assay [2] (setting [4]). In addition, the “Selectivity (X) FGFR1/FGFR3” value in assay [2] was “B (B represents 20 ≤ multiple X<50)”.

`CC(C)c1cc(C(C)Oc2ccc3[nH]nc(-c4cnn(C)c4)c3c2)c2nccnc2c1` (stereo not drawn) [Example 144, 7-isopropyl-5-(1-((3-(1-methyl-1H-pyrazol-4-y1)-1H-indazol-5-yl)oxy)ethyl)quino xaline] came in with a half-maximal inhibitory concentration (IC50) in assay [1] of over 100 nM. Further, in assay [2], the IC50 was under 1 nM and the “Selectivity (X) FGFR1/FGFR3” value is reported as “C (C represents 50 ≤ multiple X<100)”.

Take `CC(Oc1ccc2[nH]nc(-c3cnn(C)c3)c2c1)c1cc(C(F)F)cc2nccnc12` (stereo not drawn) [Example 145, 7-(difluoromethyl)-5-(1-((3-(1-methyl-1H-pyrazol-4-yl)-1H-indazol-5-yl)oxy)ethyl)qu inoxaline]: the IC50 is 1 to 10 nM in assay [1] (setting [3]) and under 1 nM in assay [2] (setting [4]). Besides, the “Selectivity (X) FGFR1/FGFR3” value in assay [2] is reported as “A (A represents 1 ≤ multiple X<20)”.

On to `CC(Oc1ccc2[nH]nc(-c3cnn(C)c3)c2c1)c1cccc2ncc(N)cc12` (stereo not drawn) [Example 147, 5-(1-((3-(1-methyl-1H-pyrazol-4-yl)-1H-indazol-5-yl)oxy)ethyl)qu inoline-3-amine], for which the figures for the IC50 in assay [1] (setting [3]) and in assay [2] (setting [4]) were 10 to 100 nM and 1 to 10 nM, respectively. Moreover, the “Selectivity (X) FGFR1/FGFR3” value in assay [2] is “A (A represents 1 ≤ multiple X<20)”.

For `COc1cc(C(C)Oc2ccc3[nH]nc(-c4cnn(C)c4)c3c2)c2cccnc2c1` (stereo not drawn) [Example 148, 7-methoxy-5-(1-((3-(1-methyl-1H-pyrazol-4-yl)-1H-indazol-5-yl)oxy)ethyl)qu inoline], the IC50 is over 100 nM in assay [1] (setting [3]) and 1 to 10 nM in assay [2] (setting [4]). Further, the “Selectivity (X) FGFR1/FGFR3” value in assay [2] is “C (C represents 50 ≤ multiple X<100)”.

As to `CC(Oc1ccc2[nH]nc(-c3ccc(N4CCS(=O)(=O)CC4)nc3)c2c1)c1cccc2nccnc12` (stereo not drawn) [Example 149, 4-(5-(5-(1-(quinoxalin-5-yl)ethoxy)-1H-indazol-3-yl)pyridin-2-yl)thiomorpholine1,1-dioxide], the half-inhibitory concentration (IC50) is 10 to 100 nM in assay [1] (setting [3]) and under 1 nM in assay [2] (setting [4]). Besides, the “Selectivity (X) FGFR1/FGFR3” value in assay [2] is listed as “B (B represents 20 ≤ multiple X<50)”.

For `CC(Oc1ccc2[nH]nc(-c3cnn(C)c3)c2c1)c1cc(N)cc2ncccc12` (stereo not drawn) [Example 150, 5-(1-((3-(1-methyl-1H-pyrazol-4-yl)-1H-indazol-5-yl)oxy)ethyl)qu inoline-7-amine], the IC50 in assay [1] (setting [3]) is 1 to 10 nM; in assay [2] (setting [4]), under 1 nM. Also, the “Selectivity (X) FGFR1/FGFR3” value in assay [2] is listed as “A (A represents 1 ≤ multiple X<20)”.

For `CC(Oc1ccc2[nH]nc(-c3cnn(CCS(=O)(=O)N(C)C)c3)c2c1)c1cccc2nccnc12` (stereo not drawn) [Example 160, N,N-dimethyl-2-(4-(5-(1-(quinoxalin-5-yl)ethoxy)-1H-indazol-3-yl)-1H-pyrazol-1-yl)ethane-1-sulfonamide], the IC50 is over 100 nM in assay [1] (setting [3]) and 1 to 10 nM in assay [2] (setting [4]). In addition, the “Selectivity (X) FGFR1/FGFR3” value in assay [2] is reported as “B (B represents 20 ≤ multiple X<50)”.

As to `Cc1ccc2nnccc2c1C(C)Oc1ccc2[nH]nc(-c3cnn(C)c3)c2c1` (stereo not drawn) [Example 168, 6-methyl-5-(1-((3-(1-methyl-1H-pyrazol-4-yl)-1H-indazol-5-yl)oxy)ethyl)cinnoline], the IC50 in assay [1] (setting [3]) lay within 10 to 100 nM; in assay [2] (setting [4]), 1 to 10 nM. Besides, the “Selectivity (X) FGFR1/FGFR3” value in assay [2] is recorded as “A (A represents 1 ≤ multiple X<20)”.
